Assay results taken from ChEMBL document CHEMBL3872243, “Synthesis of new morpholine-connected pyrazolidine derivatives and their antimicrobial, antioxidant, and cytotoxic activities” (2017).
In brackets after ≈: the same amount, converted by molar mass.

What was measured:
Assay type in all cases: functional
[1] = Antioxidant activity assessed as reduction in AAPH free radical-induced linoleic acid peroxidation activity measured at 100 ug/ml by UV spectroscopic analysis; design: scale not given: the % may be the effect or the level left
[2] = Cytotoxicity against human HeLa cells after 48 hrs by MTT assay
[3] = Antioxidant activity assessed as ABTS radical scavenging activity at 100 ug/ml after 30 mins
[4] = tested on: Klebsiella pneumoniae; assay: Antibacterial activity against Klebsiella pneumoniae after 24 hrs by two fold dilution method
[5] = Antifungal activity against Microsporum audouinii after 24 hrs by two fold dilution method
[6] = Cytotoxicity against human HepG2 cells after 48 hrs by MTT assay; conditions: HepG2, 48 h
[7] = tested on: Escherichia coli; assay: Antibacterial activity against Escherichia coli after 24 hrs by two fold dilution method
[8] = tested on: Pseudomonas aeruginosa; assay: Antibacterial activity against Pseudomonas aeruginosa after 24 hrs by two fold dilution method
[9] = Cytotoxicity against human MCF7 cells after 48 hrs by MTT assay; conditions: MCF7, 48 h
[10] = tested on: Aspergillus niger; assay: Antifungal activity against Aspergillus niger after 24 hrs by two fold dilution method
[11] = tested on: Staphylococcus aureus; assay: Antibacterial activity against Staphylococcus aureus after 24 hrs by two fold dilution method
[12] = tested on: Staphylococcus epidermidis; assay: Antibacterial activity against Staphylococcus epidermidis after 24 hrs by two fold dilution method
[13] = Antifungal activity against Cryptococcus neoformans after 24 hrs by two fold dilution method
[14] = tested on: Candida albicans; assay: Antifungal activity against Candida albicans after 24 hrs by two fold dilution method

Row | Compound | Activity [1] [%] | GI50 [2] [µM] | LC50 [2] [µM] | TGI [2] [µM] | Activity [3] [%] | MIC [4] [µg/mL] | MIC [5] [µg/mL] | GI50 [6] [µM] | LC50 [6] [µM] | TGI [6] [µM] | MIC [7] [µg/mL] | MIC [8] [µg/mL] | LC50 [9] [µM] | MIC [10] [µg/mL] | MIC [11] [µg/mL] | MIC [12] [µg/mL] | MIC [13] [µg/mL] | MIC [14] [µg/mL] | GI50 [9] [µM] | TGI [9] [µM]
1 | O=[N+]([O-])c1ccc(N2C(O)CC(c3ccccc3)N2C(c2ccc(O)cc2)N2CCOCC2)c([N+](=O)[O-])c1 (stereo not drawn) | 75.4 | 41.3 | > 100 | 87.2 | 81.6 | 8 (≈ 15.3 µM) | 8 (≈ 15.3 µM) | 36.3 | > 100 | 65.3 | > 100 | 15 (≈ 28.8 µM) | > 100 | > 100 | – | – | – | – | – | –
2 | O=[N+]([O-])c1ccc(N2C(O)CC(c3ccccc3)N2C(c2c[nH]c3ccccc23)N2CCOCC2)c([N+](=O)[O-])c1 (stereo not drawn) | 34.6 | 34.2 | > 100 | 72.1 | 27.8 | > 100 | 8 (≈ 14.7 µM) | 15.9 | 54.8 | 38.2 | > 100 | 8 (≈ 14.7 µM) | 76.3 | 16 (≈ 29.4 µM) | 1 (≈ 1.84 µM) | > 100 | 64 (≈ 118 µM) | 32 (≈ 58.8 µM) | 24.4 | 59.3
3 | CN(C)c1ccc(C(N2CCOCC2)N2C(c3ccccc3)CC(O)N2c2ccc([N+](=O)[O-])cc2[N+](=O)[O-])cc1 (stereo not drawn) | 29.6 | 29.2 | > 100 | 57.9 | 31 | 64 (≈ 117 µM) | > 100 | 35.8 | > 100 | 62.3 | 8 (≈ 14.6 µM) | 64 (≈ 117 µM) | > 100 | > 100 | > 100 | 2 (≈ 3.65 µM) | > 100 | 2 (≈ 3.65 µM) | 13.9 | 28.9
4 | CC(C)=CCC/C(C)=C\C(N1CCOCC1)N1C(c2ccccc2)CC(O)N1c1ccc([N+](=O)[O-])cc1[N+](=O)[O-] (stereo not drawn) | 84.5 | 13.8 | 71.4 | 29.6 | 91.3 | 8 (≈ 14.5 µM) | 16 (≈ 29 µM) | 38.1 | > 100 | 69.1 | 64 (≈ 116 µM) | 1 (≈ 1.81 µM) | 40.4 | 8 (≈ 14.5 µM) | > 100 | 8 (≈ 14.5 µM) | 32 (≈ 58 µM) | 0.5 (≈ 0.906 µM) | 7.8 | 21.9
5 | COc1ccc(C(N2CCOCC2)N2C(c3ccccc3)CC(O)N2c2ccc([N+](=O)[O-])cc2[N+](=O)[O-])cc1 (stereo not drawn) | 59.1 | 31.8 | > 100 | 63.2 | 61.2 | > 100 | 8 (≈ 14.9 µM) | – | > 100 | – | > 100 | > 100 | > 100 | > 100 | 4 (≈ 7.47 µM) | 8 (≈ 14.9 µM) | > 100 | > 100 | – | –
6 | O=[N+]([O-])c1ccc(N2C(O)CC(c3ccccc3)N2C(c2ccc3c(c2)OCO3)N2CCOCC2)c([N+](=O)[O-])c1 (stereo not drawn) | 29.8 | 52.9 | > 100 | 81.3 | 34.5 | 64 (≈ 116 µM) | 32 (≈ 58.2 µM) | 21.3 | 62.1 | 41 | > 100 | 2 (≈ 3.64 µM) | 87.2 | 8 (≈ 14.6 µM) | > 100 | > 100 | 64 (≈ 116 µM) | 16 (≈ 29.1 µM) | 12.9 | 45.3
7 | O=[N+]([O-])c1ccc(N2C(O)CC(c3ccccc3)N2C(c2ccc(Cl)cc2)N2CCOCC2)c([N+](=O)[O-])c1 (stereo not drawn) | 32 | 51 | > 100 | 89.2 | 41.9 | 64 (≈ 119 µM) | 64 (≈ 119 µM) | 12.2 | 42.8 | 23.1 | 0.5 (≈ 0.926 µM) | 64 (≈ 119 µM) | > 100 | 64 (≈ 119 µM) | 64 (≈ 119 µM) | > 100 | 64 (≈ 119 µM) | 1 (≈ 1.85 µM) | 46.1 | 85.1
8 | O=[N+]([O-])c1ccc(C(N2CCOCC2)N2C(c3ccccc3)CC(O)N2c2ccc([N+](=O)[O-])cc2[N+](=O)[O-])cc1 (stereo not drawn) | 47.9 | 8.9 | 43.9 | 16.8 | 58.3 | – | 32 (≈ 58.1 µM) | 49 | > 100 | 77.3 | 64 (≈ 116 µM) | – | > 100 | – | 1 (≈ 1.82 µM) | 2 (≈ 3.63 µM) | 32 (≈ 58.1 µM) | – | 20.8 | 59.3
9 | Cc1c(C)c2c(c(C)c1O)CCC(C)(C(=O)O)O2 (stereo not drawn) | 62.3 | – | – | – | 85.2 | – | – | – | – | – | – | – | – | – | – | – | – | – | – | –
10 | O=[N+]([O-])c1ccc(N2C(O)CC(c3ccccc3)N2C(c2cncs2)N2CCOCC2)c([N+](=O)[O-])c1 (stereo not drawn) | 21.5 | 37.9 | 78.9 | 51.9 | 24.6 | > 100 | 64 (≈ 125 µM) | 32 | 89.3 | 61.3 | 2 (≈ 3.9 µM) | 64 (≈ 125 µM) | > 100 | 32 (≈ 62.4 µM) | > 100 | 32 (≈ 62.4 µM) | 32 (≈ 62.4 µM) | 32 (≈ 62.4 µM) | 34 | 67.4
11 | O=[N+]([O-])c1ccc(N2C(O)CC(c3ccccc3)N2C(c2ccccc2)N2CCOCC2)c([N+](=O)[O-])c1 (stereo not drawn) | 21.8 | – | > 100 | – | 34.6 | > 100 | – | 43.2 | > 100 | 78.3 | 8 (≈ 15.8 µM) | – | > 100 | > 100 | – | – | – | > 100 | – | –
12 | Clc1ccccc1C(c1ccccc1)(c1ccccc1)n1ccnc1 [CLOTRIMAZOLE] | – | – | – | – | – | – | 0.5 (≈ 1.45 µM) | – | – | – | – | – | – | 2 (≈ 5.8 µM) | – | – | 0.5 (≈ 1.45 µM) | 1 (≈ 2.9 µM) | – | –
13 | COc1cccc2c1C(=O)c1c(O)c3c(c(O)c1C2=O)C[C@@](O)(C(=O)CO)C[C@@H]3O[C@H]1C[C@H](N)[C@H](O)[C@H](C)O1 [DOXORUBICIN] | – | 0.05 | – | 0.41 | – | – | – | 0.01 | – | 0.13 | – | – | – | – | – | – | – | – | 0.02 | 0.21
14 | O=C(O)c1cn(C2CC2)c2cc(N3CCNCC3)c(F)cc2c1=O [CIPROFLOXACIN] | – | – | – | – | – | 2 (≈ 6.04 µM) | – | – | – | – | – | 1 (≈ 3.02 µM) | – | – | 0.5 (≈ 1.51 µM) | 4 (≈ 12.1 µM) | – | – | – | –
15 | O=[N+]([O-])c1ccc(N2C(O)CC(c3ccccc3)N2C(c2ccco2)N2CCOCC2)c([N+](=O)[O-])c1 (stereo not drawn) | 42.8 | 30.8 | 80.7 | 52.1 | 20.7 | 16 (≈ 32.3 µM) | 0.5 (≈ 1.01 µM) | 41.4 | > 100 | 64.8 | 64 (≈ 129 µM) | 64 (≈ 129 µM) | 82 | 2 (≈ 4.04 µM) | 20 (≈ 40.4 µM) | 16 (≈ 32.3 µM) | > 100 | 16 (≈ 32.3 µM) | 32.1 | 56.4
16 | O=[N+]([O-])c1ccc(N2C(O)CC(c3ccccc3)N2C(c2ccccn2)N2CCOCC2)c([N+](=O)[O-])c1 (stereo not drawn) | 51.3 | 21.6 | 87.4 | 54.7 | 16.8 | 4 (≈ 7.9 µM) | > 100 | 29.1 | 67.5 | 46.8 | > 100 | 32 (≈ 63.2 µM) | 52.3 | > 100 | 18 (≈ 35.5 µM) | > 100 | 8 (≈ 15.8 µM) | 8 (≈ 15.8 µM) | 18.6 | 41.8
